Assay results reported in ChEMBL document CHEMBL5465560, “Selectivity Literature for EUbOPEN Chemogenomic Library” (2024).
Values belong to the compound of their own block, whether it stands above or below them.

Key:
[1] = target: T1, Activin receptor type-1 (Homo sapiens) (UniProt Q04771); assay: Selectivity interaction (KinomeScan (DiscoverX)) EUB0000666a ACVR1; conditions: at 10 µM
T1 sequence (whole entry): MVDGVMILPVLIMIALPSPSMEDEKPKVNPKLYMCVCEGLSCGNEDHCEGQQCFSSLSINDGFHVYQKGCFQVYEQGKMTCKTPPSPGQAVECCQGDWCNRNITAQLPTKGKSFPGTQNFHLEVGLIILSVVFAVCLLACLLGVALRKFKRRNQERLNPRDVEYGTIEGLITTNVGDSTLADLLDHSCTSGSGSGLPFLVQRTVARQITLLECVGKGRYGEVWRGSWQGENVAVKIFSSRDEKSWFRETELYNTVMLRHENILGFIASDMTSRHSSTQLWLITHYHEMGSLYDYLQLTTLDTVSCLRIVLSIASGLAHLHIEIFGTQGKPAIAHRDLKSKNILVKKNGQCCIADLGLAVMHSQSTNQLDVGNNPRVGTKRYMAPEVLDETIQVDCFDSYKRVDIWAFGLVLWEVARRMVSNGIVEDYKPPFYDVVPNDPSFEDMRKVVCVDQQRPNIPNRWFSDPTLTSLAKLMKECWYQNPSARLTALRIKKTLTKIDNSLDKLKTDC

[2] = target: MAP kinase-activated protein kinase 2 (Homo sapiens, UniProt P49137); assay: Selectivity interaction (SelectScreen profiling (Invitrogen)) EUB0000607a MAPKAPK2; conditions: at 2 µM
Chain of MAP kinase-activated protein kinase 2 (P49137 whole entry, looked up): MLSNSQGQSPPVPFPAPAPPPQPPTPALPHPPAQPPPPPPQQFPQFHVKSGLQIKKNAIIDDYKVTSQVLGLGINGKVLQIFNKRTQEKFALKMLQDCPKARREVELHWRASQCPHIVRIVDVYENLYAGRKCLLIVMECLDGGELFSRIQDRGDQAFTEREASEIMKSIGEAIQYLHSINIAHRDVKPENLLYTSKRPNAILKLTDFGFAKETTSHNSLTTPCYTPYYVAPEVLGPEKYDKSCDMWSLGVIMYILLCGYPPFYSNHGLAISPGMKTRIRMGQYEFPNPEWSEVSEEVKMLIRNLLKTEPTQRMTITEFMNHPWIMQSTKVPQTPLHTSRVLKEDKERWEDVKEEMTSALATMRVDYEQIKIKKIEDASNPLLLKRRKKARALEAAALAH

[3] = target: T2, Fibroblast growth factor receptor 3 (Homo sapiens, UniProt P22607); assay: Selectivity interaction (Upstate Kinase Profiler service (Millipore)) EUB0000056c FGFR3; conditions: at 1 µM
T2 sequence (P22607 23-806 limits assumed): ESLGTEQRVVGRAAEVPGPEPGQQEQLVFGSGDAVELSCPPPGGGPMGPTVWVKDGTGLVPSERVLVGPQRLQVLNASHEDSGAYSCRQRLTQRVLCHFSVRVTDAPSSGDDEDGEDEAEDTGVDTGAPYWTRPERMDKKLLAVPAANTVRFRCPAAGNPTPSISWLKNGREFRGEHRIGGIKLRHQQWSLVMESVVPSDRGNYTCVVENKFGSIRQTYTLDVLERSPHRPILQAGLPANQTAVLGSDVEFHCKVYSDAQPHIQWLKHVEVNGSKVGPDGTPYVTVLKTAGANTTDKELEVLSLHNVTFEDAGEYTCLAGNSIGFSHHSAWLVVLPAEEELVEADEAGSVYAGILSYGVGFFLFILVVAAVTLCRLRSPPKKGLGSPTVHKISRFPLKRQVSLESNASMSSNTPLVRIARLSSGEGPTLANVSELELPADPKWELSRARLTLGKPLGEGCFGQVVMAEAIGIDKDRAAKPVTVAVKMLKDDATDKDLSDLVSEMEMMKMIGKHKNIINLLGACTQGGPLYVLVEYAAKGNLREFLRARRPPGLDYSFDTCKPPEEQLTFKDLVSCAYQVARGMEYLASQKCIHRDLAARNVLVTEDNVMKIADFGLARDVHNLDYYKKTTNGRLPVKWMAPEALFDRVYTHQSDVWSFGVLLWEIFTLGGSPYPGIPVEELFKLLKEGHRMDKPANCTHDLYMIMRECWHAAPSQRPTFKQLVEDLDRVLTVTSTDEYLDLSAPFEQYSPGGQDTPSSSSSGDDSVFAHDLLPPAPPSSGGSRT

[4] = target: Ribosomal protein S6 kinase alpha-1 (Homo sapiens, UniProt Q15418); assay: Selectivity interaction (ActivX KiNativ screen (kinase selectivity in THP-1 cell lysates)) EUB0000639a RPS6KA1; format: subcellular; conditions: lysate, at 0.2 µM
Chain of Ribosomal protein S6 kinase alpha-1 (Q15418 whole entry): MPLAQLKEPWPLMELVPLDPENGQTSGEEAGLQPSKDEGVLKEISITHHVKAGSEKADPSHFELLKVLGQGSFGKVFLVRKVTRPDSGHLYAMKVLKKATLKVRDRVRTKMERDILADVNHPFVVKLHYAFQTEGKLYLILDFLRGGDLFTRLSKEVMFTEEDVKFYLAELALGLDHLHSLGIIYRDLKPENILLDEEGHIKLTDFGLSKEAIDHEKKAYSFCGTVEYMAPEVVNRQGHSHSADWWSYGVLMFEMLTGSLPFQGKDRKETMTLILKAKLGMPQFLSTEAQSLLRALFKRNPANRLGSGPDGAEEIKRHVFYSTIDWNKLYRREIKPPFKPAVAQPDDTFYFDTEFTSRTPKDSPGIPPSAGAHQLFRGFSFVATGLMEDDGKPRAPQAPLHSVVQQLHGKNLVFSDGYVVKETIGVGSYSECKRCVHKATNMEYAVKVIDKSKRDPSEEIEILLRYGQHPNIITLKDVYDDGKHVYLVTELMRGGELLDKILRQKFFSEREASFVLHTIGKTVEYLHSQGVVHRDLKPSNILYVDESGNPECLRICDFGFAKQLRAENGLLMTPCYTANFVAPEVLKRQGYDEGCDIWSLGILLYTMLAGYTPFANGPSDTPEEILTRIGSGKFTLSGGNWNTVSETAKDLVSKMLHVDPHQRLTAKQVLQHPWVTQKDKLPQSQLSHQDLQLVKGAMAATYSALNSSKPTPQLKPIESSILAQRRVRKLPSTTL

[5] = target: T3, MAP/microtubule affinity-regulating kinase 4 (Homo sapiens) (UniProt Q96L34); assay: Selectivity interaction (KinomeScan (DiscoverX)) EUB0000595a MARK4; conditions: at 10 µM
T3 sequence (whole entry): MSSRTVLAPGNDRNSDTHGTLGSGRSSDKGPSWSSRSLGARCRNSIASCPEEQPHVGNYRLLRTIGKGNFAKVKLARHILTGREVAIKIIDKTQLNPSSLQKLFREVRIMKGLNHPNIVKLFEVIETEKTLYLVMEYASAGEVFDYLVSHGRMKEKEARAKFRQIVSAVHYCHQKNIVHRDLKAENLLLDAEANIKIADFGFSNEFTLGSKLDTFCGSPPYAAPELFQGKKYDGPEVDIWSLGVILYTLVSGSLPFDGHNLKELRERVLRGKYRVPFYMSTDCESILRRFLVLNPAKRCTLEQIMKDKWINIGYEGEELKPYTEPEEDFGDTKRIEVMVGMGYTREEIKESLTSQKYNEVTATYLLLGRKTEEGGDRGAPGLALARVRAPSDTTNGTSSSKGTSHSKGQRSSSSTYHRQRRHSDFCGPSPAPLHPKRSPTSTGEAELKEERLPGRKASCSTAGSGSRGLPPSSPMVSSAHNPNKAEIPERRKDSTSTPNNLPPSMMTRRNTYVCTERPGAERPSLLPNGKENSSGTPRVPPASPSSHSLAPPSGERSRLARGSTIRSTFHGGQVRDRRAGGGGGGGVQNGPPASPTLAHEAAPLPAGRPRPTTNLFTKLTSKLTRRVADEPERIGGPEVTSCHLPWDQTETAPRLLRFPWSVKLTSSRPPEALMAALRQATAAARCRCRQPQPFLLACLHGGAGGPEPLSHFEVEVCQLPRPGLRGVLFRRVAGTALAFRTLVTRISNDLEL

[6] = target: Mitogen-activated protein kinase kinase kinase 4 (Homo sapiens) (UniProt Q9Y6R4); assay: Selectivity interaction (KinomeScan (DiscoverX)) EUB0001049a MAP3K4; conditions: at 1 µM
Chain of Mitogen-activated protein kinase kinase kinase 4 (Homo sapiens) (Q9Y6R4 whole entry): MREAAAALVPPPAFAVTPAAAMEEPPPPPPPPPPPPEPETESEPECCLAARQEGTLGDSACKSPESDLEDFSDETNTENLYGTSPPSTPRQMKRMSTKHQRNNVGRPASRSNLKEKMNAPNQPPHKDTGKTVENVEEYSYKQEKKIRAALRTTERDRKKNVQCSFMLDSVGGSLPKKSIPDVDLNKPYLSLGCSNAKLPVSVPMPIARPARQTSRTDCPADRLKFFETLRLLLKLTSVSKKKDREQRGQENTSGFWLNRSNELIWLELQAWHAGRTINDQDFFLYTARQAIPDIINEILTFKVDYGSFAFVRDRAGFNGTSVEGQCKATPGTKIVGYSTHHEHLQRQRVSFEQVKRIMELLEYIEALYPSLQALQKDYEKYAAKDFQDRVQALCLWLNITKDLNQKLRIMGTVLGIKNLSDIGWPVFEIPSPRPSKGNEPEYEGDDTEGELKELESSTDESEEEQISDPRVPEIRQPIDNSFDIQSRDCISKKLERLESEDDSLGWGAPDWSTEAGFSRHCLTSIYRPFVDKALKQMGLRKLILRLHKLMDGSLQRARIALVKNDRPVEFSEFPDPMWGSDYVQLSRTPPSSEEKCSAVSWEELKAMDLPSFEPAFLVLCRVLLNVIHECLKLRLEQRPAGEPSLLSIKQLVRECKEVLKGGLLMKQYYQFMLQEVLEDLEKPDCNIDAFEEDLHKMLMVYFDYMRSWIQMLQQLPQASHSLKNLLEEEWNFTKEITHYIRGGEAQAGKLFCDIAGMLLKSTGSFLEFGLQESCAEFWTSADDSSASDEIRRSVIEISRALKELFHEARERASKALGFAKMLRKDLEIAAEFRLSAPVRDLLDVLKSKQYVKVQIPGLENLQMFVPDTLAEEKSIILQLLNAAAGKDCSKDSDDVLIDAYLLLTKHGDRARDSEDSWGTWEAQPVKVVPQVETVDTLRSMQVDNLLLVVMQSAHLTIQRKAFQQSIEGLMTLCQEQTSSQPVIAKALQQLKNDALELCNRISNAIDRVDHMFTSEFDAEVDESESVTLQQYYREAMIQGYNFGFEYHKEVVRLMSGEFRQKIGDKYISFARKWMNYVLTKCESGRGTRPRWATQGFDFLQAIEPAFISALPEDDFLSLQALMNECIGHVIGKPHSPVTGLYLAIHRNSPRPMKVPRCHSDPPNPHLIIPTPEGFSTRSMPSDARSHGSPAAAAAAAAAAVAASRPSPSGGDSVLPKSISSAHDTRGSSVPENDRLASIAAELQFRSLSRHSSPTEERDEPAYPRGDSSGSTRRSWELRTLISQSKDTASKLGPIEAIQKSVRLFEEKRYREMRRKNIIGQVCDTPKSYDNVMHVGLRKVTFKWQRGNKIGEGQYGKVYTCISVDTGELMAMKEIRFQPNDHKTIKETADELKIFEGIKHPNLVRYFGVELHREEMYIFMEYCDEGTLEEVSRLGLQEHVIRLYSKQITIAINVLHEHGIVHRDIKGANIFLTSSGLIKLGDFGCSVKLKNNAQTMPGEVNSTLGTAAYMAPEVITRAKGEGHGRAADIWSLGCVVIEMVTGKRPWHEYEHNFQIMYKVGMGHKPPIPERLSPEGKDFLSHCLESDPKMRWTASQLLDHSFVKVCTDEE

[7] = target: T2, Fibroblast growth factor receptor 3; assay: Selectivity interaction (Kinase panel (DSF assay)) EUB0001558a FGFR3
[8] = target: Glutamate receptor ionotropic, NMDA 2B (Homo sapiens) (UniProt Q13224); assay: Selectivity interaction (Panel of kinases, GPCRs, ion channels and transporters (enzymatic assay)) EUB0000223bCl GRIN2B
Chain of Glutamate receptor ionotropic, NMDA 2B (Homo sapiens) (Q13224 27-1484 limits assumed): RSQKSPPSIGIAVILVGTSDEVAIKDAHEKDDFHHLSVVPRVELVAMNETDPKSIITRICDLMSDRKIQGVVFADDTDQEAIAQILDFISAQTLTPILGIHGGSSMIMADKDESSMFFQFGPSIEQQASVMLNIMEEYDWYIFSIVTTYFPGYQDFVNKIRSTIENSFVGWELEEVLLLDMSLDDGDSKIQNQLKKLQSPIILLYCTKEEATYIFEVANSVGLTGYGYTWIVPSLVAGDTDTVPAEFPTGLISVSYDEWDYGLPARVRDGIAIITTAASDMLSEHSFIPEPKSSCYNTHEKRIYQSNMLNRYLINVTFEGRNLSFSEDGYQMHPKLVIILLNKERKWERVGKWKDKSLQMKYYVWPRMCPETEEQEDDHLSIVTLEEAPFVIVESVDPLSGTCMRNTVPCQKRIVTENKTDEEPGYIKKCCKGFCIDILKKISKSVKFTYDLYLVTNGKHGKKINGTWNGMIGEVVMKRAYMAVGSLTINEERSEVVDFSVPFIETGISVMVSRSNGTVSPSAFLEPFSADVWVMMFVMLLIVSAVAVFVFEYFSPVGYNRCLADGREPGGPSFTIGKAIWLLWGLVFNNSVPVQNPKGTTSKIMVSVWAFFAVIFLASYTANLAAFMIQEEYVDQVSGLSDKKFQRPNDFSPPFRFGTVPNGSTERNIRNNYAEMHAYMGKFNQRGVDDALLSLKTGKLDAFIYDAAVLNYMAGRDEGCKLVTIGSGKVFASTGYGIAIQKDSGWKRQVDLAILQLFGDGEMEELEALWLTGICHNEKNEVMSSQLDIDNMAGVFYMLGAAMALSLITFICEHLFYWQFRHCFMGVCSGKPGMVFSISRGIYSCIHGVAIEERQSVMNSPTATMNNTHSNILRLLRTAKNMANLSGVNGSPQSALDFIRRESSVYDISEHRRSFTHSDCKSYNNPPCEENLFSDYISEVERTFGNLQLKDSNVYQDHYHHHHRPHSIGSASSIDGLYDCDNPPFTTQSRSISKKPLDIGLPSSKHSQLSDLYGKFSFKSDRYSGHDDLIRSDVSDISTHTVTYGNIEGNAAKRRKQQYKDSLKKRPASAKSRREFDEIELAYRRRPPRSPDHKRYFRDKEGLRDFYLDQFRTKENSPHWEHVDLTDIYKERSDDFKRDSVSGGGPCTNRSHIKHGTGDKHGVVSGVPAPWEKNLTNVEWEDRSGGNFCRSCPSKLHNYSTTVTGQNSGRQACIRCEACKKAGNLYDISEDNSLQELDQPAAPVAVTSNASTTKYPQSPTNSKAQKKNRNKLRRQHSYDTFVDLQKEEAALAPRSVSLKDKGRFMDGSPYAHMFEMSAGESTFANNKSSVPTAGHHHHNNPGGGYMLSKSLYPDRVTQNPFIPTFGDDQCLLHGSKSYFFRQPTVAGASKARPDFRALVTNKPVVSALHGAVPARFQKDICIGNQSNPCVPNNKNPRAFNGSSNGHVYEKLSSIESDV

[9] = target: Microtubule-associated serine/threonine-protein kinase 1 (Homo sapiens) (UniProt Q9Y2H9); assay: Selectivity interaction (KinomeScan (DiscoverX)) EUB0000655a MAST1; conditions: at 10 µM
[10] = target: RAC-beta serine/threonine-protein kinase (Homo sapiens) (UniProt P31751); assay: Selectivity interaction (KinomeScan (DiscoverX)) EUB0001079a AKT2; conditions: at 1 µM
[11] = target: T4, Histone-arginine methyltransferase CARM1 (Homo sapiens) (UniProt Q86X55); conditions: MM.1R, at 3 µM
T4 sequence (whole entry): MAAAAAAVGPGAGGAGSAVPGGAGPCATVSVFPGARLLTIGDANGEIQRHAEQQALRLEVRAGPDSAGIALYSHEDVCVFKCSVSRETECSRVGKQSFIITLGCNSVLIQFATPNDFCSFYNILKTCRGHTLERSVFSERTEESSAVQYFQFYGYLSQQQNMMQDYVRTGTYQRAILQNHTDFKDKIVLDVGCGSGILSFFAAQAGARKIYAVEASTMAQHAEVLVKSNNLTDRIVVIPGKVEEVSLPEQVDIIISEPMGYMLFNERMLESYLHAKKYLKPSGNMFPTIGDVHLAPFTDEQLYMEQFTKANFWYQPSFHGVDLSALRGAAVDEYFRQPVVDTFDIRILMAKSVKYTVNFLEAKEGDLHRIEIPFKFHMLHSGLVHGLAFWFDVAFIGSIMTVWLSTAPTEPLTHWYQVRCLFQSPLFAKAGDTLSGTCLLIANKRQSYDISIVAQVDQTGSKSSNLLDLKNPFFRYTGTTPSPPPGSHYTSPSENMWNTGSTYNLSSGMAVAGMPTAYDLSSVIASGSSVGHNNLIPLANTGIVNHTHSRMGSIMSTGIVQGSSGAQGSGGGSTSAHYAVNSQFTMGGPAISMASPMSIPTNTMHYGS

[12] = target: T5, Testis-specific serine/threonine-protein kinase 3 (Homo sapiens) (UniProt Q96PN8); assay: Selectivity interaction (KinomeScan (DiscoverX)) EUB0000229b TSSK3; conditions: at 10 µM
T5 sequence (whole entry): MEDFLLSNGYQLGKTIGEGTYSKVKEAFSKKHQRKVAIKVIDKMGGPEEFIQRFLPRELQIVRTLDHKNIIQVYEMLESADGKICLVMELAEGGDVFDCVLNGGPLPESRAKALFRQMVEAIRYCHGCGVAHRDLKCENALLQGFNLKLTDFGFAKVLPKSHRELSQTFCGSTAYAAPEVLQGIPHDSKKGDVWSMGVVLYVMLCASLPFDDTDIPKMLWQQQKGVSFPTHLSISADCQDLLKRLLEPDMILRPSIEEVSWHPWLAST

SMILES: O=C(NOC[C@H](O)CO)c1ccc(F)c(F)c1Nc1ccc(I)cc1F
% of control [1]: 76%

SMILES: CNC(=O)Nc1ccc(-c2nc(N3CC4CCC(C3)O4)c3cnn(C4CCC5(CC4)OCCO5)c3n2)cc1
% of inhibition [2]: 4%

% of inhibition [3]: 16%
SMILES: Cc1ccc(-c2ccc3c(ccc4sc5c(c43)NC[C@@H](C)NC5=O)n2)cn1

% of inhibition [4]: -3.6%
SMILES: CC[C@@H]1[C@H](F)C(=O)N[C@@H]1COc1nccc2cc(C(N)=O)c(OC)cc12 [ZIMLOVISERTIB]

SMILES: COCC(=O)NC/C=C/c1ccc2ncnc(Nc3ccc(Oc4ccc(C)nc4)c(C)c3)c2c1 [CP-724714]
% of control [5]: 100%

SMILES: COc1cc(Nc2nc(C)cc(-c3cnn4nc(OC)ccc34)n2)cc(C(F)(F)F)c1
% of control [6]: 87%

SMILES: CC(C)(O)[C@H](F)CN1Cc2cc(NC(=O)c3cnn4cccnc34)c(N3CCOCC3)cc2C1=O
dTM [7]: 2.5 K

SMILES: COc1cc(C(=O)N2CC[C@@H](O)[C@@H](N)C2)cc2nc(-c3cc4ccccc4n3CC3CC3)n(C)c12
pXC50 [8]: 4.8 M

SMILES: CN(C)CCOc1ccc(-c2nc(-c3ccncc3)c(-c3ccc4c(c3)CC/C4=N\O)[nH]2)cc1
% of control [9]: 100%

SMILES: Nc1cnc(N2CCc3cc(S(=O)(=O)Nc4c(F)cc(Cl)cc4F)cc(N4CCCC4=O)c32)nc1 [TP-020n]
% of control [10]: 100%

% of growth rate [11]: -37.8%
SMILES: CNCCN1CCC(c2cc(CN(C)C(=O)c3cccc(Oc4ccccc4)c3)ccn2)CC1

SMILES: COc1cc(N(C)c2ccnc3ccc(C(F)(F)F)cc23)cc(OC)c1OC
% binding [12]: 81%
